From patent US5084082A, “Soybean plants with dominant selectable trait for herbicide resistance” (priority 1990, dated 1992)

What was measured:
[1] = test system: mutants that have heritable sulfonylurea tolerance; test: Pilot studies, threshold concentration in hydroponic system; type: in vivo, soybean; details: sulfonylurea tolerant mutants, 100 mg/L used to irrigate the hydroponic system
Description: (§1) The same sulfonylurea concentrations would select only highly resistant plants.

[2] = test system: wild type soybeans; test: as above; type: in vivo, soybean; details: 100 mg/L used to irrigate the hydroponic system
Description: as §1

[3] = test system: SU-tolerant mutants 1-184A, 1-183A, 1-166A, 1-126A; test: Pilot study in modified Hydropot Solo hydroponic system; type: in vivo, soybean
Protocol: (§2) A pilot study was conducted to determine whether the modified Hydropot Solo system could be used to consistently differentiate between previously isolated (Sebastian and Chaleff, 1987. Crop Science 27:948-952) SU-tolerant mutants and wild type soybean plants. Four Hydropot Solo units were prepared with each planting tank containing a lower layer of pea gravel and an upper layer of fine vermiculite as described previously. Each reservoir was filled with tap water supplemented with 1/4 tablespoon of Miracle Grow soluble fertilizer per gallon. One hydroponic unit served as an untreated control while the nutrient solution of each of the other three was supplemented with either 100, 300, or 1000 ppb of an experimental sulfonylurea herbicide Compound 12. Ten seeds each of Williams 82 (wild type soybean cultivar), mutant 1-184A, mutant 1-183A, mutant 1-166A, and mutant 1-126A were then planted 2 cm deep into the vermiculite layer of each of the four hydroponic units. The programmable timer was set to irrigate the planting tanks for four 30-minute intervals during each 24-hour period. […] Differences between mutant and wild type became less dramatic as the herbicide concentration increased to 1000 ppb. […] These observations confirmed that the modified Hydropot system could be used to select for herbicide tolerance. […]

[4] = test system: Williams 82 (wild type soybean cultivar); test: as above; type: in vivo; details: Williams 82, 100 ppb in nutrient solution, 10 days after planting
Protocol: as §2

[5] = test system: ALS of W6-4; test: In vitro ALS activity of leaf tissue in the presence of Compounds 8 and 9; type: biochemical, soybean; details: W6-4, 10 ppm
Description: (§3) At approximately 1 month after transplantation, some of the selections appeared much healthier than others. For example, W4-4, W4-6, W6-1, W6-2, W6-4, W23-10, and W23-11 recovered very well from the seed soak treatment with Compound 8. These plants were suspected of having a higher level of ALS resistance to Compound 8 than did the parental material from which they were derived. The applicant was also interested to see if any of these selections were cross resistant to an imidazolinone herbicide such as Compound 9. To test this hypothesis, leaf tissue of the one-month-old M2 plants was sampled and assayed in vitro for ALS activity in the presence of Compound 8 and Compound 9. The ALS assay procedure was essentially identical to the previously described ALS assay except that the herbicide concentrations tested were 100 ppb Compound 8 and 10 ppm Compound 9. Williams and mutant W20 soybean plants were also assayed as control genotypes for comparison. Williams contains no genes conferring the ALS-based sulfonylurea resistance while W20 is homozygous for a single mutation conferring ALS-based sulfonylurea resistance.
(§4) Acetolactate synthase (ALS) was extracted from leaves of soybean plants growing vegetatively. The leaves were homogenized in 4 volumes of buffer containing 100 mM hepes (pH 7.5), 1 mM sodium pyruvate, 0.5 mM magnesium chloride, 0.5 mM thiamine pyrophosphate, […], 10% glycerol, 5% PVPP, and 0.2% mercaptoethanol. The homogenate was filtered through cheese cloth and centrifuged at 20,000 g for 20 min. ALS was precipitated from the supernatant with ammonium sulfate. The enzyme was collected between 20 and 60% saturation by centrifugation at 20,000 g for 20 min. The pellet was resuspended in buffer containing 100 mM Hepes, 1 mM sodium pyruvate, and 0.5 mM magnesium chloride, and desalted on PD-10 columns (Pharmacia) equilibrated with the same buffer. ALS assays were carried out in a final volume of 0.5 mL at 30° C. The final reaction mixture contained 100 mM Hepes (pH 7.5), 1 mM magnesium chloride, 60 mM sodium pyruvate, 0.4 mM thiaminepyrophosphate, […], and various concentrations of chlorsulfuron. The assays were initiated with the addition of enzyme ([…]) and terminated with the addition of […] of 6N sulfuric acid. The acidified reaction mixture was heated to 60° C. for 15 min, after which 0.5 mL of 0.5% (W/V) creatine and 0.5 mL of 5% (W/V) napthol (freshly prepared in 2.5 N sodium hydroxide) were added. The reaction mixtures were heated for an additional 15 min at 60° C., and the absorbance was read at 525 nm. Data are expressed in terms of % control (minus Compound 1) activity and are the average of two replications. Fisher's least significant difference (LSD) value (at the 95% level of confidence) was calculated for each Compound 1 concentration to determine the significance of genotype mean differences.

[6] = test system: ALS of W4-5; test: as above; type: biochemical, soybean; details: W4-5, 10 ppm
Description: as §3, §4

[7] = test system: ALS of W6-1; test: as above; type: biochemical, soybean; details: W6-1, 10 ppm
Description: as §3, §4

[8] = test system: ALS of W4-4; test: as above; type: biochemical, soybean; details: W4-4, 10 ppm
Description: as §3, §4

[9] = test system: ALS of W23-11; test: as above; type: biochemical, soybean; details: W23-11, 10 ppm
Description: as §3, §4

[10] = test system: ALS of W20; test: as above; type: biochemical, soybean; details: W20, 10 ppm
Description: as §3, §4

[11] = test system: ALS of Williams; test: as above; type: biochemical, soybean; details: 10 ppm
Description: as §3, §4

[12] = test system: ALS of W23-10; test: as above; type: biochemical, soybean; details: W23-10, 10 ppm
Description: as §3, §4

[13] = test system: ALS of W6-2; test: as above; type: biochemical, soybean; details: W6-2, 10 ppm
Description: as §3, §4

[14] = test system: ALS of W4-6; test: as above; type: biochemical, soybean; details: W4-6, 10 ppm
Description: as §3, §4

[15] = test system: mutant line W4; test: Test B postemergence cross resistance test; type: in vivo, soybean; details: Glycine max, post-emergence
Description: (§5) In the second postemergence test, six true-breeding resistant mutant lines (W4, W17, W19, W20, W23, and W28) were compared to Williams 82 for cross resistance to a broad range of ALS inhibitors including eight sulfonylureas and three imidazolinones. Two seeds were planted in each 10 cm pot and allowed to grow to the second trifoliolate stage. Pots were not thinned back if both plants were at the proper stage. For each of 11 herbicides, two rates (Table VII) were selected based on previous data: the low rate was expected to cause significant injury (but not death) to Williams 82 and the high rate was expected to severely injure or kill Williams 82. All but a few line x rate treatments were replicated twice.
(§6) In both postemergence tests, plants were returned to the greenhouse after treatment and provided with ample light, moisture, and nutrients to support healthy plant growth. Two to three ratings per pot were recorded over a three-week period and averaged to obtain a single value for each pot For each herbicide, analysis of variance on injury ratings was performed separately. Fisher's least significant difference (LSD) was used to determine the significance of line mean differences at each herbicide rate using the 95% level of confidence. […]

[16] = test system: mutant line W17; test: Test B postemergence cross resistance test; type: in vivo, soybean; details: Glycine max, post-emergence
Description: as §5, §6

[17] = test system: Williams 82; test: Test B postemergence cross resistance test; type: in vivo, soybean; details: Glycine max, post-emergence, read-out: mean % injury
Description: as §5, §6

[18] = test system: mutant line W23; test: Test B postemergence cross resistance test; type: in vivo, soybean; details: Glycine max, post-emergence
Description: as §5, §6

[19] = test system: mutant line W28; test: Test B postemergence cross resistance test; type: in vivo, soybean; details: Glycine max, post-emergence
Description: as §5, §6

[20] = test system: mutant line W19; test: Test B postemergence cross resistance test; type: in vivo, soybean; details: Glycine max, post-emergence
Description: as §5, §6

[21] = test system: mutant line W20; test: Test B postemergence cross resistance test; type: in vivo, soybean; details: Glycine max, post-emergence
Description: as §5
In both postemergence tests, plants were returned to the greenhouse after treatment and provided with ample light, moisture, and nutrients to support healthy plant growth. Two to three ratings per pot were recorded over a three-week period and averaged to obtain a single value for each pot For each herbicide, analysis of variance on injury ratings was performed separately. Fisher's least significant difference (LSD) was used to determine the significance of line mean differences at each herbicide rate using the 95% level of confidence.

[22] = test system: original cultivar; details: original tomato cultivar; cited from earlier work
[23] = test system: tolerant tomato lines; details: cited from earlier work

Q: With `COc1cc(OC)nc(NC(=O)NS(=O)(=O)c2cccc3c2S(=O)(=O)C(C)C3)n1` (single isomer, unassigned) [Compound 12, N-[[(4,6-dimethoxy-2-pyrimidinyl)amino]carbonyl]-2,3,-dihydro-2-methylbenzo [B] thiophene-7-sulfonamide, 1,1-dioxide] as the compound, how does the leaf formation [1] read?
A: allow unifoliolate (but not trifoliolate) formation

Q: And the “leaf and root development” value [2]?
A: consistently stunt or inhibit leaf and root development

Q: And the “formation of unifoliolate leaves and secondary roots” value ([3]; tolerant mutant plants, 100 ppb in nutrient solution, 10 days after planting)?
A: able to form both unifoliolate leaves and secondary roots

Q: And the “further development on prolonged exposure” value ([3]; tolerant mutants, 100 ppb, 20 to 28 days)?
A: prevented further development

Q: What about the “formation of unifoliolate leaves and secondary roots” value [4] of the same compound?
A: could not

Q: For `CC(C)C1(C)N=C(c2nc3ccccc3cc2C(=O)O)NC1=O` (stereo not shown) [Compound 9, 2-[4,5-dihydro-4-methyl-4-(1-methylethyl)-5-oxo-1H-imidazol-2-Yl]-3-quinolinecarboxylic acid], which “uninhibited ALS activity as % of control” value [5] is on record?
A: 18.7 % of control

Q: What about the “uninhibited ALS activity as % of control” value [6] of the same compound?
A: 19.3 % of control

Q: And the “uninhibited ALS activity as % of control” value [7]?
A: 16.2 % of control

Q: What about the “uninhibited ALS activity as % of control” value [8] of the same compound?
A: 44.3 % of control

Q: And the “uninhibited ALS activity as % of control” value [9]?
A: 13.0 % of control

Q: What about the “uninhibited ALS activity as % of control” value [10] of the same compound?
A: 18.4 % of control

Q: What about the “uninhibited ALS activity as % of control” value [11] of the same compound?
A: 14.0 % of control

Q: And the “uninhibited ALS activity as % of control” value [12]?
A: 19.5 % of control

Q: And the “uninhibited ALS activity as % of control” value [13]?
A: 11.7 % of control

Q: What about the “uninhibited ALS activity as % of control” value [14] of the same compound?
A: 10.7 % of control

Q: And the % crop injury at 250 g/ha ([15]; W4, 250 g/ha postemergence)?
A: 13%

Q: And the % crop injury at 1000 g/ha ([15]; W4, 1000 g/ha postemergence)?
A: 13%

Q: And the soybean crop injury (%) at 250 g/ha ([16]; W17, 250 g/ha postemergence)?
A: 0%

Q: What about the soybean crop injury (%) at 1000 g/ha ([16]; W17, 1000 g/ha postemergence) of the same compound?
A: 8%

Q: What about the pest or weed control at 250 g/ha [17] of the same compound?
A: 8%

Q: And the pest or weed control at 1000 g/ha [17]?
A: 13%

Q: What about the percent soybean injury at 250 g/ha ([18]; W23, 250 g/ha postemergence) of the same compound?
A: 9%

Q: What about the percent soybean injury at 1000 g/ha ([18]; W23, 1000 g/ha postemergence) of the same compound?
A: 13%

Q: And the mean % injury to soybean at 250 g/ha ([19]; W28, 250 g/ha postemergence)?
A: 9%

Q: What about the mean % injury to soybean at 1000 g/ha ([19]; W28, 1000 g/ha postemergence) of the same compound?
A: 15%

Q: And the percent soybean crop injury at 250 g/ha ([20]; W19, 250 g/ha postemergence)?
A: 9%

Q: What about the percent soybean crop injury at 1000 g/ha ([20]; W19, 1000 g/ha postemergence) of the same compound?
A: 9%

Q: What about the percent crop injury at 250 g/ha ([21]; W20, 250 g/ha postemergence) of the same compound?
A: 5%

Q: What about the percent crop injury at 1000 g/ha ([21]; W20, 1000 g/ha postemergence) of the same compound?
A: 15%

Q: Which results are given for `CN(C)C(=O)C(c1ccccc1)c1ccccc1` [diphenamid]?
A: reduction in seedling weight [22]: 40%; reduction in seedling weight [23]: 25%
